Experimental data taken from ChEMBL document CHEMBL1201862, “PubChem BioAssay data set” (2004).
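These data come from cells grown in 96-well plates and exposed to compound for 48 hours at five concentrations. The concentration for 50% growth inhibition is given as GI50.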 Calls of active or inactive are those of the source. No stated cut-off is given here; in the data, active = GI50 up to about 1.1 µM and inactive = higher.

What was measured:
Assay in all cases: NCI tumour cell line growth inhibition, 48 h
[1] = tested on: OVCAR-8
[2] = tested on: MCF7
[3] = tested on: SK-MEL-2
[4] = tested on: CAKI-1
[5] = tested on: HOP-92
[6] = tested on: HCC 2998
[7] = tested on: NCI/ADR-RES
[8] = tested on: OVCAR-4
[9] = tested on: EKVX
[10] = tested on: Malme-3M
[11] = tested on: RPMI-8226
[12] = tested on: SW-620
[13] = tested on: A549
[14] = tested on: A498
[15] = tested on: SK-OV-3
[16] = tested on: MDA-MB-435
[17] = tested on: RXF 393
[18] = tested on: SF-268
[19] = tested on: OVCAR-3

Measured: GI50

Cn1c2ccccc2c2c3c(c4c5ccccc5n(C)c4c21)C(=O)N(Cc1ccccc1)C3=O
inactive: [1] > 100 µM | [2] > 100 µM | [3] > 100 µM | [4] > 100 µM | [5] > 100 µM | [6] > 100 µM | [7] > 100 µM | [8] > 100 µM | [9] > 100 µM | [10] > 100 µM | [11] > 100 µM | [12] > 100 µM | [13] 90.2 µM | [14] 79.1 µM | [15] > 100 µM | [16] > 100 µM

COc1ccc(C(=O)C(Br)C(Br)C(=O)O)cc1 (stereo unspecified)
inactive: [1] 32.7 µM | [2] 35.8 µM | [17] 24.2 µM | [3] 39 µM | [4] 38.3 µM | [5] > 100 µM | [7] 30.1 µM | [18] 32.8 µM | [8] 53 µM | [9] 53.6 µM | [10] 21.4 µM | [11] 20.4 µM | [12] 23.3 µM | [13] 66.5 µM | [14] > 100 µM | [19] 28.3 µM | [15] 33.7 µM | [16] 36.1 µM

Cn1cco/c1=N/c1ccc(Cl)c(Cl)c1
inactive: [1] > 10 µM | [2] > 10 µM | [4] > 10 µM | [5] > 10 µM | [6] > 10 µM | [7] > 10 µM | [18] > 10 µM | [8] > 10 µM | [9] > 10 µM | [10] > 10 µM | [11] > 10 µM | [12] > 10 µM | [13] > 10 µM | [14] > 10 µM | [19] > 10 µM | [15] > 10 µM | [16] > 10 µM

CN1CCC(n2[nH]c(-c3ccccc3)c(Cc3ccccc3)c2=O)CC1 [BENZPIPERYLON]
inactive: [1] > 100 µM | [2] > 100 µM | [17] 63 µM | [3] > 100 µM | [4] > 100 µM | [5] > 100 µM | [6] > 100 µM | [7] > 100 µM | [18] > 100 µM | [8] > 100 µM | [9] > 100 µM | [10] 90.8 µM | [11] 46.8 µM | [12] > 100 µM | [13] > 100 µM | [14] 93.3 µM | [19] > 100 µM | [15] > 100 µM | [16] > 100 µM

CC(C)CCNC(=O)C(CC(C)C)NC(=O)[C@H]1O[C@@H]1C(=O)O (stereo partly specified)
inactive: [1] > 100 µM | [2] > 100 µM | [4] > 100 µM | [5] > 100 µM | [6] > 100 µM | [7] > 100 µM | [18] > 100 µM | [8] > 100 µM | [9] > 100 µM | [10] > 100 µM | [12] > 100 µM | [13] > 100 µM | [14] > 100 µM | [19] > 100 µM | [15] > 100 µM | [16] > 100 µM

O=C1C(c2c(O)[nH]c3ccc(F)cc23)=Nc2ccccc21
inactive: [1] 8.13 µM | [2] 6.56 µM | [17] 3.19 µM | [3] 14.5 µM | [4] > 100 µM | [5] 10.9 µM | [6] > 100 µM | [7] > 100 µM | [18] 15.1 µM | [9] > 100 µM | [10] > 100 µM | [11] > 100 µM | [12] > 100 µM | [13] > 100 µM | [19] > 100 µM | [15] 6.24 µM | [16] > 100 µM

ClCCN(CCCl)c1ccc(/C=N/Nc2ccnc3ccccc23)cc1
inactive: [1] 1.41 µM | [2] 3.03 µM | [3] 2 µM | [4] 2.18 µM | [5] 1.64 µM | [6] 3.26 µM | [7] 1.9 µM | [18] 2.65 µM | [8] 1.85 µM | [9] 2.39 µM | [10] 1.49 µM | [11] 1.32 µM | [12] 1.87 µM | [13] 1.63 µM | [14] 20.3 µM | [19] 1.88 µM | [15] 1.58 µM | [16] 1.53 µM

CC(C)=Cc1cc(CCC/C(C)=C/Cc2c(O)cc(C)c(C(=O)O)c2O)co1
inactive: [1] 84.9 µM | [2] > 100 µM | [3] > 100 µM | [4] > 100 µM | [5] > 100 µM | [6] > 100 µM | [7] > 100 µM | [18] > 100 µM | [8] > 100 µM | [9] > 100 µM | [11] 26.1 µM | [12] > 100 µM | [13] > 100 µM | [19] > 100 µM | [16] > 100 µM

COC(=O)C1CCC(=S)N1C(=O)c1ccccc1 (stereo unspecified)
inactive: [1] > 100 µM | [2] > 100 µM | [17] > 100 µM | [3] > 100 µM | [4] > 100 µM | [5] > 100 µM | [6] 77.6 µM | [7] > 100 µM | [18] > 100 µM | [8] > 100 µM | [9] 87.3 µM | [10] > 100 µM | [11] > 100 µM | [13] > 100 µM | [14] > 100 µM | [19] > 100 µM | [15] > 100 µM | [16] > 100 µM

N=c1c2sc3nc4ccccc4n3c2ncn1Cc1ccccc1
inactive: [1] > 100 µM | [2] > 100 µM | [17] 63.5 µM | [3] > 100 µM | [4] > 100 µM | [5] > 100 µM | [6] > 100 µM | [7] > 100 µM | [18] > 100 µM | [8] > 100 µM | [9] > 100 µM | [10] > 100 µM | [11] > 100 µM | [12] > 100 µM | [13] > 100 µM | [14] > 100 µM | [19] > 100 µM | [15] > 100 µM | [16] > 100 µM

O=[N+]([O-])c1ccc(N2N=C(c3c(O)ccc4ccccc34)CC2c2ccc(Cl)cc2)c([N+](=O)[O-])c1 (stereo unspecified)
inactive: [1] 21.7 µM | [2] 26.4 µM | [17] 20 µM | [3] 17.8 µM | [4] 28.7 µM | [5] 26 µM | [6] 28.6 µM | [7] 16.4 µM | [18] 29.5 µM | [8] 64.9 µM | [10] 15.2 µM | [11] 15.3 µM | [12] 25.3 µM | [13] 15.1 µM | [14] 22.6 µM | [19] 29.9 µM | [15] 27.5 µM | [16] 25.6 µM
